According to patent US20220071210A1, “FUNGICIDAL MIXTURE” (Adama Makhteshim Ltd., priority 2018, published 2022):

Tested on: Ramularia collo-cygni
Assay: Fungicidal control of Ramularia collo-cygni on winter barley (spray treatments, alone and tank mix)
Type: in vivo
Conditions: sprayed twice 14 days apart, rate (gr A.I./ha) as in table; for % control observed, 38 Days after 2nd application: untreated severity 85.6%; for % control observed, 44 Days after 2nd application: untreated severity 100%
Description: An experiment was conducted to evaluate the fungicidal control of Ramularia collo-cygni on winter barley with a dehydrogenase inhibitor fungicide (fluxapyroxad), and folpet, alone, and in binary mixtures.
The experiments were conducted by applying a commercially available composition of fluxapyroxad (Imtrex®) and folpet (MCW-296 SC) alone or together. The compositions were diluted with water to the stated concentration of the active compound.
The following active ingredients and their mixtures were evaluated: • Fluxapyroxad 90 gr (A.I.)/ha • Folpet 750 gr (A.I.)/ha • Fluxapyroxad+Folpet 90 gr (A.I.)/ha+750 gr (A.I.)/ha
To test for fungicidal control of Ramularia collo-cygni, the winter barley was sprayed with each of the above treatments. Each of the above treatments were applied twice, the 2nd treatment occurring 14 days after the first treatment. The treatments were composed of 4 replicates.
Evaluations were performed at 38 days and 44 days after the second treatment. At these times the severity of the Ramularia collo-cygni was determined. At the time of the 1st evaluation (38 days after the second treatment) the severity of the infection of Ramularia collo-cygni on the winter barley was 85.6%. At the time of the 2nd evaluation (44 days after the second treatment) the severity was 100%.
The visually determined percentages of infected leaf areas may be converted into efficacies in % of the untreated control:
The efficacy (E) is calculated as follows using Abbott's formula: […]
A corresponds to the fungicidal infection of the treated plants in % and B corresponds to the fungicidal infection of the untreated (control) plants in %.
An efficacy of 0 means that the infection level of the treated plants corresponds to that of the untreated control plants; an efficacy of 100 means that the treated plants are not infected.
In the field of agriculture, it is often understood that the term “synergy” is as defined by Colby S. R. in an article entitled “Calculation of the synergistic and antagonistic responses of herbicide combinations” published in the journal Weeds, 1967, 15, p. 20-22. The action expected for a given combination of two active components can be calculated as follows: […]
in which E represents the expected percentage of fungicidal control for the combination of the two fungicides at defined doses (for example equal to x and y respectively), X is the percentage of fungicidal control observed by the compound (I) at a defined dose (equal to x), Y is the percentage of fungicidal control observed by the compound (II) at a defined dose (equal to y). When the percentage of fungicidal control observed for the combination is greater than the expected percentage, there is a synergistic effect.

Cn1cc(C(=O)Nc2ccccc2-c2cc(F)c(F)c(F)c2)c(C(F)F)n1 [Fluxapyroxad, fluxapyroxad]
% control observed, 38 Days after 2nd application: 47.1% | % control observed, 44 Days after 2nd application: 12.2%

O=C1c2ccccc2C(=O)N1SC(Cl)(Cl)Cl [Folpet, folpet]
% control observed, 38 Days after 2nd application: 30.3% | % control observed, 44 Days after 2nd application: 9.7%
